According to patent US5869501A, “Amidinonaphthyl derivative or salt thereof” (Yamanouchi Pharmaceutical Co. Ltd, priority 1994, dated 1999):
pIC50: −log10 of the molar value. Counter-ions that a name gives are not always drawn. Like-named read-outs stand apart in the source and are kept apart here.

Legend:
Format in all cases: biochemical
bovine thrombin = biological target: T1, bovine thrombin (Bos taurus, UniProt P00735); assay: Measurement of coagulation time by bovine thrombin (human fibrinogen); conditions: pH=7.40, read-out: CT2 (dose which extends the blood coagulation time twice), bovine thrombin
T1 construct: clotting of human fibrinogen
Procedure: 2) Test on the measurement of coagulation time by bovine thrombin.
Human fibrinogen (freeze-dried preparation, manufactured by Sigma) is dissolved in 0.05M Tris-HCl buffer (pH=7.40) to prepare a 6 mg/ml solution. Bovine thrombin (500 IU/vial, manufactured by Mochida Pharmaceutical) is dissolved in physiological saline to prepare thrombin solutions of various concentrations. A 100 μl portion of the aforementioned fibrinogen solution was mixed with 100 μl of physiological saline, the mixture was incubated at 37° C. for 3 minutes. Then, 100 μl of the aforementioned thrombin solution was added to measure the coagulation time and to determine concentration of thrombin which causes coagulation after about 20 seconds. Next, 100 μl of each drug which has been diluted with physiological saline was added to 100 μl of the aforementioned fibrinogen solution to measure the coagulation time. KC4A manufactured by Amelung was used for the measurement of the coagulation time. A dose which extends the blood coagulation time twice (to be referred to as CT2 hereinafter) was calculated based on the blood coagulation time when 100 μl of physiological saline was added.

[1] = biological target: T2, human activated blood coagulation factor X (Homo sapiens, UniProt P00742); assay: Measurement of blood coagulation time by human activated blood coagulation factor X (human plasma); conditions: read-out: CT2 (dose which extends the blood coagulation time twice), human activated blood coagulation factor X
T2 construct: purchased Cosmo Bio
Procedure: 1) Test on the measurement of blood coagulation time by human activated blood coagulation factor X.
Human activated blood coagulation factor X (manufactured by Cosmo Bio) is dissolved in 0.05M Tris-HCl buffer (pH=7.40) to prepare a 0.05 unit/ml solution. A blood sample collected using 1/10 volume of 3.8% sodium citrate was centrifuged at 3,000 rpm for 10 minutes. Then, 90 μl portion of the thus separated human plasma was mixed with 10 μl of each drug which has been diluted by dissolving in physiological saline and 50 μl of the aforementioned activated blood coagulation factor X solution, and the mixture was incubated at 37° C. for 3 minutes. Then, 100 μl of 20 mM CaCl2 solution was added to measure the blood coagulation time. KC4A manufactured by Amelung was used for the measurement of blood coagulation time. A dose which extends the blood coagulation time twice (to be referred to as CT2 hereinafter) was calculated based on the blood coagulation time when 10 μl of physiological saline was added instead of the drug.

[2] = biological target: T2, human activated blood coagulation factor X; assay: Measurement of enzyme inhibition by a synthetic substrate method (S-2222); conditions: 37° C., 15 minutes, absorbance at 405 nm
Procedure: 3) Test on the measurement of enzyme inhibition by a synthetic substrate method.
Human activated blood coagulation factor X (manufactured by Cosmo Bio) was dissolved in 0.02M Tris-HCl buffer (pH=7.40) containing 0.15M sodium chloride to prepare a 6 units/ml solution. A synthetic substrate S-2222 (manufactured by Daiichi Kagaku Yakuhin) was dissolved in purified water to prepare a 0.75 mg/ml solution. A 25 μl portion of each drug which has been prepared by dissolving the drug in physiological saline was mixed with 170 μl of 0.05M Tris-HCl buffer (pH=8.40) and 50 μl of the S-2222 solution. Then, 10 μl of the human activated blood coagulation factor X solution was added and the mixture was incubated at 37° C. for 15 minutes. The reaction was stopped by adding 50 μl of 60% acetic acid and then the absorbance at 405 nm was measured to calculate IC50 value. Model 3550 manufactured by Bio-Rad was used for the measurement. A reaction mixture prepared by adding physiological saline instead of the drug and adding 60% acetic acid prior to the addition of the human activated blood coagulation factor X solution was used as a control. Concentration of the drug when 50% of the reaction was inhibited (to be referred to as IC50 hereinafter) was calculated based on the control.

[3] = human plasma, 37° C., 3 minutes incubation

T2 sequence (P00742 235-488 limits assumed): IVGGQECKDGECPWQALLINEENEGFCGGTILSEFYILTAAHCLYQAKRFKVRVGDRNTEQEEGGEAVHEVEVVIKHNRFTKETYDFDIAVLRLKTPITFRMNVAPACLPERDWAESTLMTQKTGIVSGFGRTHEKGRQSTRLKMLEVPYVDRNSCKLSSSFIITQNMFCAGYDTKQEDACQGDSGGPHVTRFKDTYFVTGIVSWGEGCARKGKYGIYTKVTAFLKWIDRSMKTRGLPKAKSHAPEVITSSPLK
T2 sequence (P00742 41-179 partner limits assumed): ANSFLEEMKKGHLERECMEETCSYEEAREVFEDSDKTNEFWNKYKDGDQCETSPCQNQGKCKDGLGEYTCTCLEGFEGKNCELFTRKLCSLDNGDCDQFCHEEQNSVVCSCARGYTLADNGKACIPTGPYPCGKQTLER

Row | IC (2-fold clotting time) (bovine thrombin) [µM] | IC (2-fold clotting time) [1, 3] [µM] | Compound | pIC50 [2] | IC (2-fold clotting time) [1] [µM]
1 | > 100 | 0.04 | CCOC(=O)NS(=O)(=O)N(Cc1ccc2ccc(C(=N)N)cc2c1)c1ccc(OC2CCN(C(C)=N)CC2)cc1 [Example 63, Ethyl N-[N-[4-[(1-acetoimidoyl-4-piperidyl)oxy]phenyl]-N-[7-amidino-2-naphthyl)methyl]sulfamoyl]carbamate dihydrochloride] | – | –
2 | > 100 | 0.13 | CC(=N)N1CCC(Oc2ccc(N(Cc3ccc4ccc(C(=N)N)cc4c3)C(=O)c3c(F)cccc3F)cc2)CC1 [Example 47, N-[4-[(1-Acetoimidoyl-4-piperidyl)oxy]phenyl]-N-[(7-amidino-2-naphthyl)methyl]-2,6-difluorobenzamide dihydrochloride] | – | –
3 | > 100 | 0.04 | CCOC(=O)N(CC(=O)O)S(=O)(=O)N(Cc1ccc2ccc(C(=N)N)cc2c1)c1ccc(OC2CCN(C(C)=N)CC2)cc1 [Example 86, N-[N-[4-[(1-Acetoimidoyl-4-piperidyl)oxy]phenyl]-N-[(7-amidino-2-naphthyl)methyl]sulfamoyl]-N-ethoxycarbonylglycine dihydrochloride] | – | –
4 | > 100 | 0.14 | COc1ccccc1C(=O)N(Cc1ccc2ccc(C(=N)N)cc2c1)c1ccc(OC2CCN(C(C)=N)CC2)cc1 [Example 33, N-[4-[(1-Acetoimidoyl-4-piperidyl)oxy]phenyl]-N-[(7-amidino-2-naphthyl)methyl]-2-methoxybenzamide dihydrochloride] | – | –
5 | > 100 | 0.11 | CCOC(=O)C(=O)N(Cc1ccc2ccc(C(=N)N)cc2c1)c1ccc(OC2CCN(C(C)=N)CC2)cc1 [Example 23, ethyl N-[4-[(1-acetoimidoyl-4-piperidyl)oxy]phenyl]-N-[(7-amidino-2-naphthyl)methyl]oxamate dihydrochloride] | – | –
6 | > 100 | 0.05 | CCS(=O)(=O)N(Cc1ccc2ccc(C(=N)N)cc2c1)c1ccc(OC2CCN(C(C)=N)CC2)cc1 [Example 28, N-[4-[(1-Acetoimidoyl-4-piperidyl)oxy]phenyl]-N-[(7-amidino-2-naphthyl)methyl]ethanesulfonamide dihydrochloride] | – | –
7 | > 100 | 0.09 | CC(=N)N1CCC(Oc2ccc(N(Cc3ccc4ccc(C(=N)N)cc4c3)S(=O)(=O)c3ccc(C(=O)O)cc3)cc2)CC1 [Example 74, 4-[N-[4-[(1-Acetoimidoyl-4-piperidyl)oxy]phenyl]-N-[(7-amidino-2-naphthyl)methyl]sulfamoyl]benzoic acid dihydrochloride] | – | –
8 | > 100 | 0.09 | CC(=N)N1CCC(Oc2ccc(NCc3ccc4ccc(C(=N)N)cc4c3)cc2)CC1 [Example 31, 7-[[4-[(1-Acetoimidoyl-4-piperidyl)oxy]anilino]methyl]-2-naphthamidine trihydrochloride] | – | –

Row | Compound | IC (2-fold clotting time) (bovine thrombin) [µM] | IC (2-fold clotting time) [1, 3] [µM] | pIC50 [2] | IC (2-fold clotting time) [1] [µM]
9 | CNS(=O)(=O)N(Cc1ccc2ccc(C(=N)N)cc2c1)c1ccc(OC2CCN(C(C)=N)CC2)cc1 [Example 79, N-[4-[(1-Acetoimidoyl-4-piperidyl)oxy]phenyl]-N-[(7-amidino-2-naphthyl)methyl]-N'-methylsulfamide dihydrochloride] | > 100 | – | 7.04 | 0.05
10 | CCOC(=O)CNS(=O)(=O)N(Cc1ccc2ccc(C(=N)N)cc2c1)c1ccc(OC2CCN(C(C)=N)CC2)cc1 [Example 88, Ethyl N-[N-[4-[(1-acetoimidoyl-4-piperidyl)oxy]phenyl]-N-[(7-amidino-2-naphthyl)methyl]sulfamoyl]glycinate dihydrochloride] | > 100 | – | 7.33 | 0.04
